Consider 23 molecules from patent publication EP2832371B1, “APPLICATION OF GASTRODIN AS SOLUBILIZER AND METHOD FOR PREPARING INJECTION OR POWDER FOR INJECTION” (KPC Pharmaceuticals, Inc., priority 2012, dated 2013).

A short description of data set [1]: Dissolution of the compound together with gastrodin in the preparation tank. The class given is physicochemical. Conditions: amounts per formula of the example; with gastrodin in water for injection kept at 80 °C, vacuum, nitrogen gas. The protocol:
heating water for injection to 80-98 °C, followed by stirring under vacuum conditions at 30-80 °C, and then adding the reactant under the protection of nitrogen gas or argon gas to obtain a solution of the reactant.
60% of the total amount of water for injection for preparation was added into a preparation tank, heated to 95 °C with slight boiling, and kept at 80 °C. The vacuum was initiated while stirring for 10 minutes, followed by bringing breviscapine along with gastrodin and sodium carbonate weighed according to the amounts in the formula by nitrogen gas into the preparation tank. […] Next, it is sterile-filtered, sterile-filled and freeze-dried by a conventional process to obtain the freeze-dried powder for injection.

The nature of data set [2]: Maximum tolerance dose of gastrodin calculated from intramuscular and intravenous injection in animals. To be noted: calculated at 60 kg from maximum tolerance dose of intramuscular and intravenous injection for animals. The class given is in vivo, human. The protocol: Gastrodin is a white crystalline powder, odorless, bitter taste; melting point: 153 °C~156 °C; easily soluble in water or methanol and soluble in ethanol. Gastrodin has sedative, hypnotic and analgesic effects, and has low toxicity. It can be calculated from the maximum tolerance dose of intramuscular injection and intravenous injection for animals that the maximum tolerance dose for human is 33.249 g of gastrodin (calculated at 60 kg).

With `OC[C@H]1O[C@@H](Oc2cc(/C=C/c3cc(O)cc(O)c3)ccc2O)[C@H](O)[C@@H](O)[C@@H]1O`, in data set [1], the “time in which the compound dissolved in the preparation tank” value (shortened to “time in which the compound dissolved”) is recorded as “about 5 minutes”. As to `CC(=O)Cc1cc(=O)c2c(C)cc(O)c([C@@H]3O[C@H](CO)[C@@H](O)[C@H](O)[C@H]3O)c2o1` [Aloesin], in data set [1], the “time in which the compound dissolved” value is recorded as “about 5 minutes”. The same measure, in the same setting: the result for `O=c1cc(-c2ccccc2)oc2cc(O)c(O)c(O)c12` [Baicalein] reads “about 5 minutes”. Same read-out and setting: the result for `O=C(O)[C@H]1O[C@@H](Oc2cc3oc(-c4ccccc4)cc(=O)c3c(O)c2O)[C@H](O)[C@@H](O)[C@@H]1O` [Baicalin] reads “about 5 minutes”. On to `O=C1c2c(O)cccc2C([C@@H]2O[C@H](CO)[C@@H](O)[C@H](O)[C@H]2O)c2cc(CO)cc(O)c21` (some centres unmarked) [Barbaloin], for which the “time in which the compound dissolved” value in data set [1] is on record as “about 5 minutes”. Same read-out and setting: the result for `COc1c(O)cc2c(c1O)[C@@H]1O[C@H](CO)[C@@H](O)[C@H](O)[C@H]1OC2=O` [Bergenin] reads “about 5 minutes”; that for `O=c1c(-c2ccc(O)cc2)coc2cc(O)ccc12` [Daidzein], “about 5 minutes”.

Take `O=c1c(-c2ccc(O)cc2)coc2cc(O[C@@H]3O[C@H](CO)[C@@H](O)[C@H](O)[C@H]3O)ccc12` [Daidzin]: the “time in which the compound dissolved” value in data set [1] is listed as “about 5 minutes”.

On to `COc1ccc(/C=C/c2cc(O)cc(O[C@@H]3O[C@H](CO)[C@@H](O)[C@H](O)[C@H]3O)c2)cc1` [Deoxyrhapontin], for which, in data set [1], the “time in which the compound dissolved” value is “about 5 minutes”. Turning to `O=C1CC(c2ccccc2)Oc2cc(O)c(O)c(O)c21` (centres unmarked) [Dihydrobaicalein], the “time in which the compound dissolved” value in data set [1] is on record as “about 5 minutes”. Regarding `OCc1ccc(O[C@@H]2O[C@H](CO)[C@@H](O)[C@H](O)[C@H]2O)cc1` [Gastrodin, 4-hydroxymethylphenyl-β-D-glucopyranoside hemihydrate], in data set [2], the “maximum tolerance dose for human” value is reported as 33.249 g. As to `COc1ccc([C@@H]2CC(=O)c3c(O)cc(O)cc3O2)cc1O` [Hesperetin], the “time in which the compound dissolved” value in data set [1] is “about 5 minutes”. Turning to `O=c1cc(-c2ccc(O)c(O)c2)oc2cc(O)c([C@@H]3O[C@H](CO)[C@@H](O)[C@H](O)[C@H]3O)c(O)c12` [Homoorientin], the “time in which the compound dissolved” value in data set [1] was “about 5 minutes”. With `COc1ccc(-c2oc3cc(O)cc(O)c3c(=O)c2O)cc1` [Kaempferide], in data set [1], the “time in which the compound dissolved” value is given as “about 5 minutes”.

In the case of `Oc1ccc2c(c1)OC[C@H]1c3cc4c(cc3O[C@@H]21)OCO4` [Maackiain], the “time in which the compound dissolved” value in data set [1] is listed as “about 5 minutes”. For the molecule `O=C1C[C@@H](c2ccc(O)cc2)Oc2cc(O)cc(O)c21` [Naringenin], the “time in which the compound dissolved” value in data set [1] is on record as “about 5 minutes”. Still for that read-out and setting: under `OC[C@H]1O[C@@H](Oc2cc(O)cc(/C=C/c3ccc(O)cc3)c2)[C@H](O)[C@@H](O)[C@@H]1O` [Polydatin] stands “about 5 minutes”; under `O=c1c(-c2ccc(O)cc2)coc2c([C@@H]3O[C@H](CO)[C@@H](O)[C@H](O)[C@H]3O)c(O)ccc12` [Puerarin], “about 5 minutes”.

For the molecule `O=c1c(O)c(-c2ccc(O)c(O)c2)oc2cc(O)cc(O)c12` [Quercetin], the “time in which the compound dissolved” value in data set [1] is on record as “about 5 minutes”. As for `Oc1ccc(C=Cc2cc(O)cc(O)c2)cc1` [Resveratrol], the “time in which the compound dissolved” value in data set [1] was “about 5 minutes”. Same read-out and setting: under `COc1ccc(/C=C/c2cc(O)cc(O[C@@H]3O[C@H](CO)[C@@H](O)[C@H](O)[C@H]3O)c2)cc1O` [Rhapontin] stands “about 5 minutes”. Turning to Breviscapine, in data set [1], the “time in which the compound dissolved” value is “about 5 minutes”. Regarding Taxinine, in data set [1], the “time in which the compound dissolved” value was “about 5 minutes”.
